Experimental data from patent US3984393A, “Aminoglycoside antibiotics” (The Upjohn Company, priority 1975, dated 1976).
Values after ≈ are worked out from the molar mass of the structure shown. Like-named read-outs stand apart in the source and are kept apart here.

What was measured:
B. cereus = assay: standard disc plate assay, 12.5 mm paper discs (zone of inhibition), B. cereus; type: cell-based, Bacillus cereus; settings: for zone of inhibition at 5000 µg/mL / zone of inhibition at 10000 µg/mL: Bacillus cereus, B. cereus; for zone of inhibition at 5000 µg/mL: 5 mg/ml; for zone of inhibition at 10000 µg/mL: 10 mg/ml; for active against Bacillus cereus: conclusion in words from the above results
Description: (§1) The novel intermediates, disclosed herein, are useful to make novel aminoglycoside antibiotics. These novel aminoglycoside antibiotics are antibacterially active, and, thus, they can be used in various environments to eradicate or control sensitive bacteria. Following are in vitro antibacterial test results for representative compounds of the subject invention. The results were obtained with a standard disc plate assay using 12.5 mm paper discs.

B. subtilis = assay: standard disc plate assay, 12.5 mm paper discs (zone of inhibition), B. subtilis; type: cell-based, Bacillus subtilis; settings: for zone of inhibition at 5000 µg/mL / zone of inhibition at 10000 µg/mL: Bacillus subtilis, B. subtilis; for zone of inhibition at 5000 µg/mL: 5 mg/ml; for zone of inhibition at 10000 µg/mL: 10 mg/ml; for active against Bacillus subtilis: conclusion in words from the above results
Description: as §1

S. aureus UC 76 = assay: standard microplate test in BHI Agar (MIC), S. aureus UC 76; type: cell-based, Staphylococcus aureus; settings: for MIC: Staphylococcus aureus, UC76, 20 h, read-out: Minimum Inhibitory Concentration
Protocol: (§2) Compounds were also tested in a standard microplate test in Brain Heart Infusion (BHI) Agar, at a concentration of 1 mg/ml. Incubation is at 37° and end points are read at 20 hours. Brain Heart Infusion Agar (supplied by Difco Laboratories, Detroit, Michigan, U.S.A.) has the following composition:
(§3) Compounds (7β), (7α) and (9) were tested again along with compounds (11) and (14β) against a neamine control using the same conditions as given above.

S. aureus UC 570 = assay: standard microplate test in BHI Agar (MIC), S. aureus UC 570; type: cell-based; settings: Staphylococcus aureus, first table, read-out: Minimum Inhibitory Concentration
Protocol: as §2, with “composition: […]” for “composition:”

S. aureus UC 746 = assay: standard microplate test in BHI Agar (MIC), S. aureus UC 746; type: cell-based; settings: Staphylococcus aureus, UC746, 37°, 20 h, first table, read-out: Minimum Inhibitory Concentration
Protocol: as §2, with “composition: […]” for “composition:”

S. hemolyticus UC 152 = assay: standard microplate test in BHI Agar (MIC), S. hemolyticus UC 152; type: cell-based, Streptococcus hemolyticus; settings: for MIC: Streptococcus pyogenes
Protocol: as §2, §3

St. faecalis UC 694 = assay: standard microplate test in BHI Agar (MIC), St. faecalis UC 694; type: cell-based; settings: Enterococcus faecalis, UC694, 20 h, read-out: Minimum Inhibitory Concentration
Protocol: as §2, §3

E. coli UC 45 = assay: standard microplate test in BHI Agar (MIC), E. coli UC 45; type: cell-based; settings: Escherichia coli, UC45, 20 h, E. coli UC 45, read-out: Minimum Inhibitory Concentration
Protocol: as §2, §3

P. vulgaris UC 93 = assay: standard microplate test in BHI Agar (MIC), P. vulgaris UC 93; type: cell-based; settings: Proteus vulgaris, UC93, 20 h, P. vulgaris UC 93, read-out: Minimum Inhibitory Concentration
Protocol: as §2, §3

K. pneumoniae UC 58 = assay: standard microplate test in BHI Agar (MIC), K. pneumoniae UC 58; type: cell-based; settings: Klebsiella pneumoniae, UC58, 20 h
Protocol: as §2, §3

S. schottmuelleri UC 126 = assay: standard microplate test in BHI Agar (MIC), S. schottmuelleri UC 126; type: cell-based; settings: 20 h, read-out: Minimum Inhibitory Concentration
Protocol: as §2, §3

Ps. aeruginosa UC 95 = assay: standard microplate test in BHI Agar (MIC), Ps. aeruginosa UC 95; type: cell-based; settings: Pseudomonas aeruginosa, UC95, 20 h, Ps. aeruginosa UC 95, read-out: Minimum Inhibitory Concentration
Protocol: as §2, §3

D. pneumoniae UC 41 = assay: standard microplate test in BHI Agar (MIC), D. pneumoniae UC 41; type: cell-based; settings: Streptococcus pneumoniae, UC41, 20 h, D. pneumoniae UC 41, read-out: Minimum Inhibitory Concentration
Protocol: as §2, §3

P. mirabilis A-63 = assay: standard microplate test in BHI Agar (MIC), P. mirabilis A-63; type: cell-based; settings: Proteus mirabilis, A63, 20 h, P. mirabilis A-63, retest table, neamine control, read-out: Minimum Inhibitory Concentration
Protocol: as §2, §3

P. morgani UC 3186 = assay: standard microplate test in BHI Agar (MIC), P. morgani UC 3186; type: cell-based; settings: 20 h, P. morgani UC 3186, retest table, neamine control, read-out: Minimum Inhibitory Concentration
Protocol: as §2, §3

P. rettgeri UC 339 = assay: standard microplate test in BHI Agar (MIC), P. rettgeri UC 339; type: cell-based; settings: Providencia rettgeri, UC339, 20 h, P. rettgeri UC 339, retest table, neamine control, read-out: Minimum Inhibitory Concentration
Protocol: as §2, §3

S. marcescens UC 131 = assay: standard microplate test in BHI Agar (MIC), S. marcescens UC 131; type: cell-based; settings: Serratia marcescens, UC131, 20 h, S. marcescens UC 131, retest table, neamine control, read-out: Minimum Inhibitory Concentration
Protocol: as §2, §3

S. flexneri UC 143 = assay: standard microplate test in BHI Agar (MIC), S. flexneri UC 143; type: cell-based; settings: Shigella flexneri, UC143, 20 h, retest table, neamine control, read-out: Minimum Inhibitory Concentration
Protocol: as §2, §3

S. typhi TG-3 = assay: standard microplate test in BHI Agar (MIC), S. typhi TG-3; type: cell-based; settings: Salmonella enterica, 20 h, read-out: Minimum Inhibitory Concentration
Protocol: as §2, §3

[1] = BHI agar, 37°, 20 h, first table, *run on different day
[2] = retest table, group (7β), (14β), neamine control
[3] = BHI agar, 37°, 20 h, first table
[4] = retest table, group (9), (11), (7α), neamine control

NC[C@H]1O[C@H](O[C@H]2[C@H](O)[C@@H](O[C@@H]3O[C@H](CO)[C@@H](O)[C@H]3O)[C@H](N)C[C@@H]2N)[C@H](N)[C@@H](O)[C@@H]1O [(7β), 6-O-(β-D-Ribofuranosyl)neamine]
zone of inhibition at 5000 µg/mL (B. cereus): 25 mm
zone of inhibition at 10000 µg/mL (B. cereus): 34 mm
active against Bacillus cereus (B. cereus): active
zone of inhibition at 5000 µg/mL (B. subtilis): 35 mm
zone of inhibition at 10000 µg/mL (B. subtilis): 38 mm
active against Bacillus subtilis (B. subtilis): active
MIC (S. aureus UC 76; S. aureus 284 UC 76, BHI agar, 37°, 20 h, first table, *run on different day): 1000 µg/mL (≈ 2200 µM)
MIC (S. aureus UC 76; S. aureus UC 76, retest table, group (7β), (14β), neamine control): 500 µg/mL (≈ 1100 µM)
MIC (S. aureus UC 570; UC570, 37°, 20 h, *run on different day): 1000 µg/mL (≈ 2200 µM)
MIC (S. aureus UC 746; *run on different day): 500 µg/mL (≈ 1100 µM)
MIC (S. hemolyticus UC 152; UC152, 20 h, read-out: Minimum Inhibitory Concentration, S. hemolyticus UC 152, BHI agar, 37°, 20 h, first table, *run on different day): 62.5 µg/mL (≈ 138 µM)
MIC (S. hemolyticus UC 152; UC152, 20 h, S. hemolyticus UC 152, retest table, group (7β), (14β), neamine control, read-out: Minimum Inhibitory Concentration): 250 µg/mL (≈ 550 µM)
MIC (St. faecalis UC 694; S. faecalis UC 694, retest table, group (7β), (14β), neamine control): 1000 µg/mL (≈ 2200 µM)
MIC (St. faecalis UC 694; St. faecalis UC 694, BHI agar, 37°, 20 h, first table, *run on different day): > 1000 µg/mL
MIC (E. coli UC 45; [1]): 500 µg/mL (≈ 1100 µM)
MIC (E. coli UC 45; [2]): 1000 µg/mL (≈ 2200 µM)
MIC (P. vulgaris UC 93; [1]): 500 µg/mL (≈ 1100 µM)
MIC (P. vulgaris UC 93; [2]): 1000 µg/mL (≈ 2200 µM)
MIC (K. pneumoniae UC 58; read-out: Minimum Inhibitory Concentration, K. pneumoniae UC 58, BHI agar, 37°, 20 h, first table, *run on different day): 62.5 µg/mL (≈ 138 µM)
MIC (K. pneumoniae UC 58; K. pneumoniae UC 58, retest table, group (7β), (14β), neamine control, read-out: Minimum Inhibitory Concentration): 250 µg/mL (≈ 550 µM)
MIC (S. schottmuelleri UC 126; BHI agar, 37°, first table, *run on different day): 250 µg/mL (≈ 550 µM)
MIC (S. schottmuelleri UC 126; [2]): 500 µg/mL (≈ 1100 µM)
MIC (Ps. aeruginosa UC 95; [1]): > 1000 µg/mL
MIC (Ps. aeruginosa UC 95; [2]): 1000 µg/mL (≈ 2200 µM)
MIC (D. pneumoniae UC 41; [1]): > 1000 µg/mL
MIC (D. pneumoniae UC 41; [2]): 1000 µg/mL (≈ 2200 µM)
MIC (P. mirabilis A-63; group (7β), (14β)): 1000 µg/mL (≈ 2200 µM)
MIC (P. morgani UC 3186; group (7β), (14β)): 1000 µg/mL (≈ 2200 µM)
MIC (P. rettgeri UC 339; group (7β), (14β)): 1000 µg/mL (≈ 2200 µM)
MIC (S. marcescens UC 131; group (7β), (14β)): 1000 µg/mL (≈ 2200 µM)
MIC (S. flexneri UC 143; group (7β), (14β)): 1000 µg/mL (≈ 2200 µM)
MIC (S. typhi TG-3): 1000 µg/mL (≈ 2200 µM)

CC1(O[C@@H]2[C@@H](O)[C@H](O[C@H]3O[C@H](CN)[C@@H](O)[C@H](O)[C@H]3N)[C@@H](N)C[C@H]2N)O[C@H]2O[C@H](CO)[C@@H](O)[C@H]2O1 (stereo partly shown) [Compound (9)]
zone of inhibition at 5000 µg/mL (B. cereus): 29 mm
zone of inhibition at 10000 µg/mL (B. cereus): 34 mm
active against Bacillus cereus (B. cereus): active
zone of inhibition at 5000 µg/mL (B. subtilis): 32 mm
zone of inhibition at 10000 µg/mL (B. subtilis): 34 mm
active against Bacillus subtilis (B. subtilis): active
MIC (S. aureus UC 76; S. aureus UC 76, retest table, group (9), (11), (7α), neamine control): 125 µg/mL (≈ 252 µM)
active against Staphylococcus aureus (S. aureus UC 76; conclusion in words from the above results): active
MIC (S. aureus UC 570; UC570, 20 h, 37°): 250 µg/mL (≈ 504 µM)
MIC (S. aureus UC 746): 250 µg/mL (≈ 504 µM)
Minimum Inhibitory Concentration (S. hemolyticus UC 152; S. hemolyticus UC 152, retest table, group (9), (11), (7α), neamine control): 3.9 µg/mL
MIC (S. hemolyticus UC 152; UC152, S. hemolyticus UC 152, BHI agar, 37°, 20 h, first table, read-out: Minimum Inhibitory Concentration): 3.9 µg/mL (≈ 7.85 µM)
MIC (St. faecalis UC 694; S. faecalis UC 694, retest table, group (9), (11), (7α), neamine control): 1000 µg/mL (≈ 2010 µM)
MIC (St. faecalis UC 694; St. faecalis UC 694, BHI agar, 37°, 20 h, first table): > 1000 µg/mL
MIC (E. coli UC 45; [3]): 250 µg/mL (≈ 504 µM)
MIC (E. coli UC 45; [4]): 250 µg/mL (≈ 504 µM)
MIC (P. vulgaris UC 93; [3]): 500 µg/mL (≈ 1010 µM)
MIC (P. vulgaris UC 93; [4]): 125 µg/mL (≈ 252 µM)
MIC (K. pneumoniae UC 58; read-out: Minimum Inhibitory Concentration, K. pneumoniae UC 58, BHI agar, 37°, 20 h, first table): 62.5 µg/mL (≈ 126 µM)
MIC (K. pneumoniae UC 58; K. pneumoniae UC 58, retest table, group (9), (11), (7α), neamine control, read-out: Minimum Inhibitory Concentration): 31.2 µg/mL (≈ 62.8 µM)
MIC (S. schottmuelleri UC 126; BHI agar, 37°, first table): 250 µg/mL (≈ 504 µM)
MIC (S. schottmuelleri UC 126; [4]): 62.5 µg/mL (≈ 126 µM)
MIC (Ps. aeruginosa UC 95; [3]): > 1000 µg/mL
MIC (Ps. aeruginosa UC 95; [4]): 1000 µg/mL (≈ 2010 µM)
MIC (D. pneumoniae UC 41; [3]): > 1000 µg/mL
MIC (D. pneumoniae UC 41; [4]): 125 µg/mL (≈ 252 µM)
MIC (P. mirabilis A-63; group (9), (11), (7α)): 500 µg/mL (≈ 1010 µM)
MIC (P. morgani UC 3186; group (9), (11), (7α)): 125 µg/mL (≈ 252 µM)
MIC (P. rettgeri UC 339; group (9), (11), (7α)): 1000 µg/mL (≈ 2010 µM)
MIC (S. marcescens UC 131; group (9), (11), (7α)): 500 µg/mL (≈ 1010 µM)
MIC (S. flexneri UC 143; group (9), (11), (7α)): 500 µg/mL (≈ 1010 µM)
MIC (S. typhi TG-3): 250 µg/mL (≈ 504 µM)
